# Experimental data: ChEMBL document CHEMBL1681705, “Optimisation of ITK inhibitors through successive iterative design cycles” (Bioorg Med Chem Lett, 2011)
# Legend:
# [1] = molecular target: T1, Ephrin type-B receptor 1 (Homo sapiens) (UniProt P54762); assay: Inhibition of EphB1 at 0.1 uM; values are per cent of control
# T1 sequence (whole entry): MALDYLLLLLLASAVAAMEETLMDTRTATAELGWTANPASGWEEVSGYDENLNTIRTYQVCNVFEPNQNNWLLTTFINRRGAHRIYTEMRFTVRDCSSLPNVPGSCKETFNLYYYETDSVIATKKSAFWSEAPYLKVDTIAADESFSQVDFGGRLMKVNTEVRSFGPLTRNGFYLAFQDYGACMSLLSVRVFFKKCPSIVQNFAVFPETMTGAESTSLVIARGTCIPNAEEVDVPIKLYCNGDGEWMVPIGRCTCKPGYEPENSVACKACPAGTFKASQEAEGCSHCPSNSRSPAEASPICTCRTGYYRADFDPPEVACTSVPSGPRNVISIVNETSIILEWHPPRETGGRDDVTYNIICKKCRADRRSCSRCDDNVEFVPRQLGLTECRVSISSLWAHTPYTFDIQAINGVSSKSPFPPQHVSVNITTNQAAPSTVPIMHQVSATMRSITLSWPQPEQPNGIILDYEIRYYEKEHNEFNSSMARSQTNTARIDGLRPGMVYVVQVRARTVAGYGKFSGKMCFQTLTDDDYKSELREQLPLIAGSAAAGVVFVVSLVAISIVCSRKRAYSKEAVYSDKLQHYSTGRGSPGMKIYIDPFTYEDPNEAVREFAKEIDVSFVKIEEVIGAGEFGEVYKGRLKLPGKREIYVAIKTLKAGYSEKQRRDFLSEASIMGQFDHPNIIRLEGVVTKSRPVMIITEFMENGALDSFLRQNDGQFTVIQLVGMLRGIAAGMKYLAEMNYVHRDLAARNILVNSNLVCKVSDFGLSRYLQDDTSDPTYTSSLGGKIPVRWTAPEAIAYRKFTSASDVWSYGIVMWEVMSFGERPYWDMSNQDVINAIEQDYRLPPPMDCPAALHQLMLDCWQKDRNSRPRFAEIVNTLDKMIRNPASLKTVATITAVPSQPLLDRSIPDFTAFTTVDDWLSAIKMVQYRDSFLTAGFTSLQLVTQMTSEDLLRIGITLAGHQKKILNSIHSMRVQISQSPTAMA
# [2] = molecular target: Calcium/calmodulin-dependent protein kinase type 1 (Homo sapiens) (UniProt Q14012); assay: Inhibition of CaMK1 at 0.1 uM; values are per cent of control
# [3] = molecular target: Serine/threonine-protein kinase PLK3 (Homo sapiens) (UniProt Q9H4B4); assay: Inhibition of Plk3 at 0.1 uM; values are per cent of control
# [4] = molecular target: Insulin-like growth factor 1 receptor (Homo sapiens) (UniProt P08069); assay: Inhibition of IGF1R at 0.1 uM; values are per cent of control
# [5] = molecular target: T2, Protein kinase C iota type (Homo sapiens) (UniProt P41743); assay: Inhibition of PKCiota at 0.1 uM; values are per cent of control
# T2 sequence (whole entry): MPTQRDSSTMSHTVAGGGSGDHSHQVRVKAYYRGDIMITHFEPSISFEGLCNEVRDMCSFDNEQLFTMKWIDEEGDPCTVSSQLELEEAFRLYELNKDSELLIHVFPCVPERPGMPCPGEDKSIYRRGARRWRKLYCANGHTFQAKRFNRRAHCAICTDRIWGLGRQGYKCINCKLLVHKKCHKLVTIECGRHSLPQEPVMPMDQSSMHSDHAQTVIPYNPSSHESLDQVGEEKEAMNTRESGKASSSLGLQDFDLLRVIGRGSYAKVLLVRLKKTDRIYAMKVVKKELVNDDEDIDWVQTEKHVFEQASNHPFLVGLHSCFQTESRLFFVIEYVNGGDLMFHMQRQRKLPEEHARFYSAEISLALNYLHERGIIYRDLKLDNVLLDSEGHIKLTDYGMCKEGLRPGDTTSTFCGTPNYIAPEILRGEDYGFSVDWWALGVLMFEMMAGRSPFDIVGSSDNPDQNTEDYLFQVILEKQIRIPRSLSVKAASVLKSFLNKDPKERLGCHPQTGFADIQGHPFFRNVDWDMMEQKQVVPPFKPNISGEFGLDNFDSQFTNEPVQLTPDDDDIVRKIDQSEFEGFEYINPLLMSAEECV
# [6] = molecular target: MAP kinase-activated protein kinase 2 (Homo sapiens) (UniProt P49137); assay: Inhibition of MAPKAP-K2 at 0.1 uM; values are per cent of control
# [7] = molecular target: Macrophage colony-stimulating factor 1 receptor (Homo sapiens) (UniProt P07333); assay: Inhibition of Fms at 1 uM; values are per cent of control
# [8] = Inhibition of MAPK2 at 0.1 uM; conditions: values are per cent of control
# [9] = molecular target: T2, Protein kinase C iota type (Homo sapiens); assay: Inhibition of PKCiota at 1 uM; values are per cent of control
# [10] = molecular target: Receptor-interacting serine/threonine-protein kinase 2 (Homo sapiens) (UniProt O43353); assay: Inhibition of RIPK2 at 0.1 uM; values are per cent of control
# [11] = Inhibition of ROCK1 at 0.1 uM; values are per cent of control
# [12] = molecular target: Ephrin type-A receptor 7 (Homo sapiens) (UniProt Q15375); assay: Inhibition of EphA7 at 0.1 uM; values are per cent of control
# [13] = molecular target: Ephrin type-A receptor 4 (Homo sapiens) (UniProt P54764); assay: Inhibition of EphA4 at 0.1 uM; values are per cent of control
# Ephrin type-A receptor 4 (Homo sapiens), sequence (P54764 whole entry): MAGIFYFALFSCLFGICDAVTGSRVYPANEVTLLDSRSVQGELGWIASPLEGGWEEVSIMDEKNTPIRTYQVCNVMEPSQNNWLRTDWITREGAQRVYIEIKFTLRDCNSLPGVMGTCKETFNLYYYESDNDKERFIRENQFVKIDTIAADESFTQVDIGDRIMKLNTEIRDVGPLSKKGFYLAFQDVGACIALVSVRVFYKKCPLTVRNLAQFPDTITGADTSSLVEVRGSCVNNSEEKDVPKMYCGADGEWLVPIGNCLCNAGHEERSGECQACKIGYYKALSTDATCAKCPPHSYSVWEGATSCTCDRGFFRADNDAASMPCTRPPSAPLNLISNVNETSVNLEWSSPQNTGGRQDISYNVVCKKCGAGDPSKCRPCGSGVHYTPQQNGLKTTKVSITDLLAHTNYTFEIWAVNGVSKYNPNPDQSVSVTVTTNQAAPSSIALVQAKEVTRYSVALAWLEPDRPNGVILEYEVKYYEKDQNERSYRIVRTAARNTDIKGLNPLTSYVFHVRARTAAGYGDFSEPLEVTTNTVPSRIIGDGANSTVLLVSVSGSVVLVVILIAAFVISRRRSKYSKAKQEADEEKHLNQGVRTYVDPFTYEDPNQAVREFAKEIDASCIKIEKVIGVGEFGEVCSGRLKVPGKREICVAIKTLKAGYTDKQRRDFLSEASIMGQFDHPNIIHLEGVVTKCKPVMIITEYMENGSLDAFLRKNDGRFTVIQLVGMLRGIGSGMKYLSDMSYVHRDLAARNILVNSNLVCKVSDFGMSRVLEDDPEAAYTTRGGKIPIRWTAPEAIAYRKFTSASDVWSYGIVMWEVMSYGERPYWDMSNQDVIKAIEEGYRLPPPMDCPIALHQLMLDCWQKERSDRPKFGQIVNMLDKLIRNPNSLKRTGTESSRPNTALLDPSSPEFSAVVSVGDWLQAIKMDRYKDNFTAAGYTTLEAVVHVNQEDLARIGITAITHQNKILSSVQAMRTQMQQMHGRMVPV
# Ephrin type-A receptor 7 (Homo sapiens), sequence (Q15375 28-998 limits assumed): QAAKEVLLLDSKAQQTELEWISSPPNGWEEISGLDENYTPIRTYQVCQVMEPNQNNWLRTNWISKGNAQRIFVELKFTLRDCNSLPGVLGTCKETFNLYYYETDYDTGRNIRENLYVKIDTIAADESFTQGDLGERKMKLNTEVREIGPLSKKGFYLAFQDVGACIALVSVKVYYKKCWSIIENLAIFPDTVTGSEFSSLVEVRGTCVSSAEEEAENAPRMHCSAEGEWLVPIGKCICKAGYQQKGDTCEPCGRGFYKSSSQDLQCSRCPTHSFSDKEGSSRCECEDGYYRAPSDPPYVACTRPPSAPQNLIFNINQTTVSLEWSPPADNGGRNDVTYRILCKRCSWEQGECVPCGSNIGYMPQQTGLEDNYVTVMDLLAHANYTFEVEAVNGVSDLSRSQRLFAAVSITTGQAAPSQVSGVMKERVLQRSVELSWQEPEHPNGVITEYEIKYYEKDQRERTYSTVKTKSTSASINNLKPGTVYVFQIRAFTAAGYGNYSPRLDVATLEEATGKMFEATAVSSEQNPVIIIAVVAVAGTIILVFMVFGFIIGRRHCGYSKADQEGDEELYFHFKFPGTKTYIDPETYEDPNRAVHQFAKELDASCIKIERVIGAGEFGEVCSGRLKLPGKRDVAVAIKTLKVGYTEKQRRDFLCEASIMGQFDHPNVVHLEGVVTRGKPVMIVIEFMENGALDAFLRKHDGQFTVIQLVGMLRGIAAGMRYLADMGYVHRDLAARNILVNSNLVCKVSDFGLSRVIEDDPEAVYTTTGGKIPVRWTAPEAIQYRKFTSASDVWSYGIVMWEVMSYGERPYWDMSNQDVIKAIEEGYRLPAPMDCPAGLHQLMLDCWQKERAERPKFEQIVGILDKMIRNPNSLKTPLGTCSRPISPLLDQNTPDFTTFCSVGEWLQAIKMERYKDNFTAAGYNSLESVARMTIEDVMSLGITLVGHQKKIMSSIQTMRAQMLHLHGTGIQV
# MAP kinase-activated protein kinase 2 (Homo sapiens), sequence (P49137 whole entry, looked up): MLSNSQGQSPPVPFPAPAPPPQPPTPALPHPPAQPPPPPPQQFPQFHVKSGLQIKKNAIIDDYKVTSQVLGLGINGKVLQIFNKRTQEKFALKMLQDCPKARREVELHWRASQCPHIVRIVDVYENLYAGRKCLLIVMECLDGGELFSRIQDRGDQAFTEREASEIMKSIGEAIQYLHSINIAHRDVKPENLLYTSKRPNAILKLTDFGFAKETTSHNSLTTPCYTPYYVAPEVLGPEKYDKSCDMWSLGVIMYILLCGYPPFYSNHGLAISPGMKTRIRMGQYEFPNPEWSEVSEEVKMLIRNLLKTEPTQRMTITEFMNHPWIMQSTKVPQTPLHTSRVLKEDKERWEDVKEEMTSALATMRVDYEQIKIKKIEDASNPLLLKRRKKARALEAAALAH
# Serine/threonine-protein kinase PLK3 (Homo sapiens), sequence (Q9H4B4 whole entry, looked up): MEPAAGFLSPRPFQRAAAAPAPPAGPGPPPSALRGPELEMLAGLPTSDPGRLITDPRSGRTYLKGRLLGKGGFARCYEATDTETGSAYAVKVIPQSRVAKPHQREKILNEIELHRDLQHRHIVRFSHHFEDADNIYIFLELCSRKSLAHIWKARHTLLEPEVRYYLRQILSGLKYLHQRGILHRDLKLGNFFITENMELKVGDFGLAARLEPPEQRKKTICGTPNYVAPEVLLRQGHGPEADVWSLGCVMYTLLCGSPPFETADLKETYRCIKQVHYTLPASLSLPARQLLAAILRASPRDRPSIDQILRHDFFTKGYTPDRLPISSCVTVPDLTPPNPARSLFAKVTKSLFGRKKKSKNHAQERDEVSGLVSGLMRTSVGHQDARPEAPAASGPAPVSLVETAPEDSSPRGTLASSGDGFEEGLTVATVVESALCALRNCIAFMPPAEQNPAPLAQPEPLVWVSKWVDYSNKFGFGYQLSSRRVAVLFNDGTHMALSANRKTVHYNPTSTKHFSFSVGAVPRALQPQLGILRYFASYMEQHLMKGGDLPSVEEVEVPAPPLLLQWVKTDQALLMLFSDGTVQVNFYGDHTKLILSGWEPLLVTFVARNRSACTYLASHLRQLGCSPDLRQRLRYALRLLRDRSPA
# Receptor-interacting serine/threonine-protein kinase 2 (Homo sapiens), sequence (O43353 whole entry): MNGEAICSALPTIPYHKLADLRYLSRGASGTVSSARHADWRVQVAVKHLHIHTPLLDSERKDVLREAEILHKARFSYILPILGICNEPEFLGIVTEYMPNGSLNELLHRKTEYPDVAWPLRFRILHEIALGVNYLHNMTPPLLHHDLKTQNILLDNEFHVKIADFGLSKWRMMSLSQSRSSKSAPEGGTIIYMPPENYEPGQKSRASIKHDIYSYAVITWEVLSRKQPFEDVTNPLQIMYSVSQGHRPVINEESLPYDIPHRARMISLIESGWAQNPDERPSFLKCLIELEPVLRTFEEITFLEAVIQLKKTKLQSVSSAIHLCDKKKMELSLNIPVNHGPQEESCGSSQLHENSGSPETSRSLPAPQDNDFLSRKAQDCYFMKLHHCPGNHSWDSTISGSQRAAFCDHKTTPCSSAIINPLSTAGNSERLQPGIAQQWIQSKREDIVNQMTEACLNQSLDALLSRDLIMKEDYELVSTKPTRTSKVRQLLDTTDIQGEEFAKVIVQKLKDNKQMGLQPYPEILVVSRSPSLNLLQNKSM
# Calcium/calmodulin-dependent protein kinase type 1 (Homo sapiens), sequence (Q14012 whole entry, looked up): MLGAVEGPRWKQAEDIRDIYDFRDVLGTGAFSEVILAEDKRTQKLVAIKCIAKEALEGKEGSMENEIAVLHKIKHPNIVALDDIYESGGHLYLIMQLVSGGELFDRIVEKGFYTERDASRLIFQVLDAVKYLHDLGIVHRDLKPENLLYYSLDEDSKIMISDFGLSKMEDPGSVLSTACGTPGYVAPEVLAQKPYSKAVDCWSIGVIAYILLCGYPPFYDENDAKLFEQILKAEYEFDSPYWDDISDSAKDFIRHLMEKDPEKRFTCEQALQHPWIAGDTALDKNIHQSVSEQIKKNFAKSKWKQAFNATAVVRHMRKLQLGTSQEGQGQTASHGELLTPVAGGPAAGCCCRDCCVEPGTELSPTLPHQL
# Macrophage colony-stimulating factor 1 receptor (Homo sapiens), sequence (P07333 whole entry): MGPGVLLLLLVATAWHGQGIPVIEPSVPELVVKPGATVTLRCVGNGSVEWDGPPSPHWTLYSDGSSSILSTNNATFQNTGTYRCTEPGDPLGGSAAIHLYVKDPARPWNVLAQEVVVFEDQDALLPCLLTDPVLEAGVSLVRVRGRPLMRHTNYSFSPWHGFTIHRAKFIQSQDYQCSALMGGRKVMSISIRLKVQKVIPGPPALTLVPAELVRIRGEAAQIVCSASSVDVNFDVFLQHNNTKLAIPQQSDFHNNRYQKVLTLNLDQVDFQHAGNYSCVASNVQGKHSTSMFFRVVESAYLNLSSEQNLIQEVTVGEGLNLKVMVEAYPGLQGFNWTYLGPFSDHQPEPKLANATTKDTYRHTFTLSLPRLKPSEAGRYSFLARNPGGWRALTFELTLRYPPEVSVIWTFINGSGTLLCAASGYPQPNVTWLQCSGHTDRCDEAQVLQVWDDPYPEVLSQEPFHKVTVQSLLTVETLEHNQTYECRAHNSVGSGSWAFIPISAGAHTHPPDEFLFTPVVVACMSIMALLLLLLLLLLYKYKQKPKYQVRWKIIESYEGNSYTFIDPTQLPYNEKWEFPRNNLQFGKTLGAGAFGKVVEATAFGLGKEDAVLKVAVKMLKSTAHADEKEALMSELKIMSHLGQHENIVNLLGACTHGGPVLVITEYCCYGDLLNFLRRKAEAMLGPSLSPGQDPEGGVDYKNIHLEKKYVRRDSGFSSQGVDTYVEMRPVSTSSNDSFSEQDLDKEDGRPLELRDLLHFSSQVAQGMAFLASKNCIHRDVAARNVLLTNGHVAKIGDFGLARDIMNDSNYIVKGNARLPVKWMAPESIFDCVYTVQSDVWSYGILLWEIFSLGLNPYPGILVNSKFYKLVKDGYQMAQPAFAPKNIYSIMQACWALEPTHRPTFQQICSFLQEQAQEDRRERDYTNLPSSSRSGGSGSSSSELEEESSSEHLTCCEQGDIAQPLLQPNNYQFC
residual activity [1] [%],residual activity [2] [%],residual activity [3] [%],residual activity [4] [%],residual activity [5] [%],residual activity [6] [%],residual activity [7] [%],residual activity [8] [%],residual activity [9] [%],residual activity [10] [%],residual activity [11] [%],residual activity [12] [%],residual activity [13] [%],Compound
73,89,103,52,109,104,20,100,90,94,92,75,99,Cc1ccc2cc(-c3n[nH]c4ccc(NC5CCN(Cc6ccccc6)CC5)cc34)[nH]c2c1
29,36,106,98,89,98,10,108,76,87,47,75,98,Cc1ccc2cc(-c3n[nH]c4ccc(NC5CCNC5)cc34)[nH]c2c1 (stereo unspecified)
